The values below come from PubChem BioAssay AID328 (DTP/NCI, 2004).

Structures are written as SMILES. Several values for one entry are separate records, joined by “and”; a condition that tells them apart may be missing. Identical values can stand only once. Inconclusive results and toxic doses are left out.

The subject of the assay is BDF1 mice, P388 leukemia ip, median survival T/C. Kind of assay: NCI In Vivo Anticancer Drug Screen. Data for tumor model P388 Leukemia (intraperitoneal) in B6D2F1 (BDF1) mice. The settings on record: endpoint: median survival time, higher = longer survival. The procedure, abridged: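 Reported as T/C, where T is the survival measurement in dosed animals and C the same measurement in vehicle controls.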

[1] abbreviates: dose: 6.25 mg/kg/injection, schedule: Q01DX009 (ip), vehicle: saline.
Where [2] appears, read: dose: 12.5 mg/kg/injection, schedule: Q01DX009 (ip), vehicle: saline.
[3] abbreviates: dose: 50.0 mg/kg/injection, schedule: Q01DX009 (ip), vehicle: saline with Tween-80.
Setting [4] is: dose: 100.0 mg/kg/injection, schedule: Q01DX009 (ip), vehicle: saline with Tween-80.
The mark [5] stands for this setting: dose: 200.0 mg/kg/injection, schedule: Q01DX009 (ip), vehicle: Klucel (hydroxypropylcellulose) (HPC).

For `CCCCOC1CC2c3ccccc3C1c1cccc[n+]12` (stereo not given), the T/C runs as follows: under setting [1], 95 % of control; under setting [2], 109 % of control; (dose: 18.75 mg/kg/injection, schedule: Q04DX003 (ip), vehicle: saline) 100 % of control; (dose: 25.0 mg/kg/injection, schedule: Q01DX009 (ip), vehicle: saline) 122 % of control; (dose: 37.5 mg/kg/injection, schedule: Q04DX003 (ip), vehicle: saline) 95 % of control.
Regarding `CCCCC(=O)C1=C(O)C(Nc2ccccc2)=CC(=O)C1=Nc1ccccc1`, the T/C reads like this: (dose: 100.0 mg/kg/injection, schedule: Q04DX003 (ip), vehicle: saline with Tween-80) 98 % of control; (dose: 200.0 mg/kg/injection, schedule: Q04DX003 (ip), vehicle: saline with Tween-80) 103 % of control; (dose: 400.0 mg/kg/injection, schedule: Q04DX003 (ip), vehicle: saline with Tween-80) 100 % of control.
For `CCCCCC(CN(C)C)C(=O)/C=C/c1cccc(O)c1` (stereo not given), the T/C was 106 % of control under setting [3] and 98 % of control under setting [4].
Regarding `COC1C(OC(N)=O)C(O)C(Oc2ccc3c(O)c(NC(=O)c4ccc(O)c(CC=C(C)C)c4)c(=O)oc3c2C)OC1(C)C` (stereo not given), the T/C by setting is: (dose: 50.0 mg/kg/injection, schedule: Q01DX009 (ip), vehicle: Klucel (hydroxypropylcellulose) (HPC)) 121 % of control; (dose: 100.0 mg/kg/injection, schedule: Q01DX009 (ip), vehicle: Klucel (hydroxypropylcellulose) (HPC)) 111 % of control; under setting [5], 121 % of control.
With `CC(=O)Nc1ccc2c(c1)C(N)c1ccccc1-2` (stereo not given), the T/C reads like this: under setting [3], 100 % of control; under setting [4], 104 % of control; (dose: 133.0 mg/kg/injection, schedule: Q01DX009 (ip), vehicle: Klucel (hydroxypropylcellulose) (HPC)) 95 % of control; under setting [5], 105 % of control; (dose: 200.0 mg/kg/injection, schedule: Q01DX009 (ip), vehicle: saline with Tween-80) 87 % of control; (dose: 300.0 mg/kg/injection, schedule: Q01DX009 (ip), vehicle: Klucel (hydroxypropylcellulose) (HPC)) 100 % of control.
As for `NC(=O)c1c(F)c(F)c(F)c(F)c1F`, the T/C is 107 % of control (dose: 100.0 mg/kg/injection, schedule: Q01DX001 (ip), vehicle: saline with Tween-80); 115 % of control (dose: 200.0 mg/kg/injection, schedule: Q01DX001 (ip), vehicle: saline with Tween-80); 110 % of control (dose: 400.0 mg/kg/injection, schedule: Q01DX001 (ip), vehicle: saline with Tween-80).
Regarding `C[C@]12CC[C@@H]3c4ccc(OC5CCCCO5)cc4CC[C@H]3[C@@H]1CC[C@@H]2O` (stereo not given in full), the T/C reads like this: (dose: 100.0 mg/kg/injection, schedule: Q01DX009 (ip), vehicle: saline) 105 % of control; (dose: 100.0 mg/kg/injection, schedule: Q04DX003 (ip), vehicle: saline) 100 % of control; (dose: 200.0 mg/kg/injection, schedule: Q01DX009 (ip), vehicle: saline) 95 % of control; (dose: 200.0 mg/kg/injection, schedule: Q04DX003 (ip), vehicle: saline) 100 % of control; (dose: 400.0 mg/kg/injection, schedule: Q04DX003 (ip), vehicle: saline) 100 % of control.
Consider `CC(=O)Oc1cc2cnc3c4cc(OC(C)=O)c(OC(C)=O)cc4ccc3c2cc1OC(C)=O`, for which the T/C (dose: 0.62 mg/kg/injection, schedule: Q01DX009 (ip), vehicle: saline) was 106 % of control; the T/C (dose: 1.25 mg/kg/injection, schedule: Q01DX009 (ip), vehicle: saline) is 94 % of control; the T/C (dose: 2.5 mg/kg/injection, schedule: Q01DX009 (ip), vehicle: saline) is 97 % of control; the T/C (dose: 5.0 mg/kg/injection, schedule: Q01DX009 (ip), vehicle: saline) is 86 % of control; the T/C (dose: 20.0 mg/kg/injection, schedule: Q01DX009 (ip), vehicle: saline) is 109 % of control; the T/C (dose: 80.0 mg/kg/injection, schedule: Q01DX009 (ip), vehicle: saline) is 86 % of control. Besides, the T/C runs as follows: (dose: 120.0 mg/kg/injection, schedule: Q01DX009 (ip), vehicle: saline) 90 % of control; (dose: 240.0 mg/kg/injection, schedule: Q01DX009 (ip), vehicle: saline) 95 % of control.
Turning to `Nc1ncnc2c1ncn2C1CC(O)C(CO)O1` (stereo not given), the T/C by setting is: (dose: 440.0 mg/kg/injection, schedule: Q01DX009 (ip), vehicle: saline with Tween-80) 93 % of control; (dose: 660.0 mg/kg/injection, schedule: Q01DX009 (ip), vehicle: saline with Tween-80) 93 % of control; (dose: 1000.0 mg/kg/injection, schedule: Q01DX009 (ip), vehicle: saline with Tween-80) 105 % of control.
As to `COc1cc(C=Nc2ccc(Cl)cc2)ccc1N(CCCl)CCCl`, the T/C was 162 % of control (dose: 2.2 mg/kg/injection, schedule: Q01DX009 (ip), vehicle: other); 150 % of control (dose: 3.3 mg/kg/injection, schedule: Q01DX009 (ip), vehicle: other); 179 % of control (dose: 5.0 mg/kg/injection, schedule: Q01DX009 (ip), vehicle: other); 183 % of control (dose: 7.5 mg/kg/injection, schedule: Q01DX009 (ip), vehicle: other); 245 % of control (dose: 22.0 mg/kg/injection, schedule: Q04DX003 (ip), vehicle: other); 113 % of control (dose: 22.0 mg/kg/injection, schedule: Q04DX003 (ip), vehicle: saline). Moreover, the T/C was 272 % of control (dose: 33.0 mg/kg/injection, schedule: Q04DX003 (ip), vehicle: other); 100 % of control (dose: 33.0 mg/kg/injection, schedule: Q04DX003 (ip), vehicle: saline); 186 % of control (dose: 50.0 mg/kg/injection, schedule: Q04DX003 (ip), vehicle: other); 181 % of control (dose: 75.0 mg/kg/injection, schedule: Q04DX003 (ip), vehicle: saline).
In the case of `O=C(O)C1CC(c2ccccc2)OC1=O` (stereo not given), the T/C was 92 % of control (dose: 100.0 mg/kg/injection, schedule: Q01DX009 (ip), vehicle: gum acacia); 100 % of control (dose: 100.0 mg/kg/injection, schedule: Q04DX003 (ip), vehicle: gum acacia); 92 % of control (dose: 200.0 mg/kg/injection, schedule: Q01DX009 (ip), vehicle: gum acacia); 104 % of control (dose: 200.0 mg/kg/injection, schedule: Q04DX003 (ip), vehicle: gum acacia); 108 % of control (dose: 400.0 mg/kg/injection, schedule: Q04DX003 (ip), vehicle: gum acacia).
Take `C1CC[N-]CC1.C1CC[N-]CC1.C1CC[N-]CC1.C1CC[N-]CC1.[Pt+4]`: the T/C reads like this: under setting [1], 110 % of control; under setting [2], 100 % of control.
In the case of `O=[N+]([O-])c1ccc(/C=C/c2ccccn2)s1`, the T/C is 100 % of control (dose: 100.0 mg/kg/injection, schedule: Q04DX003 (ip), vehicle: Klucel (hydroxypropylcellulose) (HPC)); 100 % of control (dose: 200.0 mg/kg/injection, schedule: Q04DX003 (ip), vehicle: Klucel (hydroxypropylcellulose) (HPC)); 100 % of control (dose: 400.0 mg/kg/injection, schedule: Q04DX003 (ip), vehicle: Klucel (hydroxypropylcellulose) (HPC)).
`CCN1/C(=C/C(C)=C/c2sc3ccccc3[n+]2CC)Sc2ccccc21`: the T/C (dose: 25.0 micrograms/kg/injection, schedule: Q01DX009 (ip), vehicle: Klucel (hydroxypropylcellulose) (HPC)) was 116 % of control; the T/C (dose: 50.0 micrograms/kg/injection, schedule: Q01DX009 (ip), vehicle: Klucel (hydroxypropylcellulose) (HPC)) was 109 % of control and 120 % of control; the T/C (dose: 100.0 micrograms/kg/injection, schedule: Q01DX009 (ip), vehicle: Klucel (hydroxypropylcellulose) (HPC)) was 106 % of control and 108 % of control; the T/C (dose: 200.0 micrograms/kg/injection, schedule: Q01DX009 (ip), vehicle: Klucel (hydroxypropylcellulose) (HPC)) is 97 % of control; the T/C (dose: 400.0 micrograms/kg/injection, schedule: Q01DX009 (ip), vehicle: Klucel (hydroxypropylcellulose) (HPC)) was 106 % of control.
Take `CCC12C=CCN3CCC4(c5c(C(c6ccc(OC)cc6)c6c(CN(C)C)c7ccccc7n6C)cc(OC)cc5N(C)C4C(O)(C(=O)OC)C1OC(C)=O)C32` (stereo not given): the T/C (dose: 0.3 mg/kg/injection, schedule: Q01DX009 (ip), vehicle: saline) was 93 % of control; the T/C (dose: 0.6 mg/kg/injection, schedule: Q01DX009 (ip), vehicle: saline) was 98 % of control; the T/C (dose: 4.0 mg/kg/injection, schedule: Q01DX009 (ip), vehicle: saline) is 97 % of control; the T/C (dose: 8.0 mg/kg/injection, schedule: Q01DX009 (ip), vehicle: saline) is 96 % of control; the T/C (dose: 15.0 mg/kg/injection, schedule: Q01DX009 (ip), vehicle: saline) is 107 % of control; the T/C (dose: 16.0 mg/kg/injection, schedule: Q01DX009 (ip), vehicle: saline) was 95 % of control. The T/C (dose: 60.0 mg/kg/injection, schedule: Q01DX009 (ip), vehicle: saline) is 123 % of control.
